By EC50 is commonly meant the concentration giving half of the maximal effect. A high value points to weaker potency. For orientation: Tmax means the time from dosing to the highest level. By AUC is commonly meant the area under the concentration-time curve, a measure of exposure. A low value points to low exposure. The MRT is the average time that molecules of a dose stay in the body. The term half-life denotes how long it takes for the measured level to halve. Lower therefore signals rapid decline. In general, Cmax refers to the highest concentration seen after dosing. Broadly, the bioavailability is dose-corrected exposure relative to a reference, in per cent. As a reminder, the Ki is the dissociation constant of the complex between target and ligand, obtained from inhibition or displacement. High values mean a looser hold on the target, low ones a stronger hold on the target.

“And” between values parts separate entries of the source, which are not always exact repeats. Equal entries are not always repeated. Where two headings read alike, the source gives them in different places.

One series concerns RS4;11 cells. The series can be described thus: Cell viability assay (CellTiter-Glo) in RS4;11 cell line. It counts as cell-based. Conditions: 24 hours, 10% Human Serum, 50% decrease in cell viability. In outline:
(§1)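 RS4;11 or Molt-4 cells (3000 per well) in RPMI 1640 with 10% human serum treated with compound for 24 h, 5% CO2. Viability measured by CellTiter-Glo as percent of control; EC50 from sigmoidal dose-response curves.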
On the technique in general: ATP-based viability assays read luminescence as a measure of living cells.

The subject of a further series is Molt-4 cells. As to the kind of experiment: Cell viability counter screen assay (CellTiter-Glo) in Molt-4 cells. It counts as cell-based. Conditions: 24 hours, 10% Human Serum, 50% decrease in cell viability. Summed up:
as §1

Series [1] in a line: Bioavailability study: pharmacokinetics after single intravenous or oral dose in mouse. It counts as in vivo. Conditions: for Vd: read-out: VSS. The protocol: Studies were conducted to evaluate the pharmacokinetic profiles of Example 25 herein and Example 2 in WO 2019/040550 after single intravenous or oral dose in mouse. CD-1 mice (male) were obtained from Charles River Laboratories (Wilmington, MA).
The pharmacokinetics of Example 25 herein and Example 2 in WO 2019/040550 were evaluated following single 1 mg/kg intravenous or oral doses in mouse. Example 25 herein and Example 2 in WO 2019/040550 were prepared as a solution in DMSO: Tween 80: PEG-400: Dextrose 5% in Water (5:5:20:70, v/v) for the IV and oral dose mouse studies. The intravenous dose was administered as a slow bolus to the penile vein under isoflurane anesthesia. The oral doses were administrated by gavage. Serial blood samples were obtained […], 0.25, 0.5, 1.0, 4, 6, 9, 12, 24, 32 and 48 hours post dosing and […]. Plasma was separated by centrifugation and stored frozen (<−15° C.) until analysis.
HPLC-MS/MS bioanalytical methods were utilized for the quantitation of Example 25 herein and Example 2 in WO 2019/040550 concentration in plasma. The analytical methods used protein precipitation to extract compound from plasma. All samples were combined with a minimum two volume equivalents of organic solvent containing internal standard, vortexed and then centrifuged to pellet the proteins. Supernatants were used for subsequent analysis by liquid chromatography-tandem mass spectrometry (LC-MS/MS). Studies involving quantitative analysis employed spiked standards in plasma that were processed simultaneously with the samples.
Analytes were separated using reverse phase chromatography on a C8 or C18 column prior to analysis on an API5500™ (or higher) mass spectrometer with a Turbo-Ion Spray source. Peak areas were determined using Sciex Analyst™ 1.6 (or higher) software or Sound Analytics DiscoveryQuant™ 2.0 (or higher) software. Actual concentrations (when required) were calculated by regression analysis of the peak area ratio (parent/internal standard) of the spiked standards versus concentrations.
Peak plasma concentrations (Cm) and the time to peak plasma concentration (Tmax) were determined directly from the plasma concentration data for each animal. The compound plasma concentration data were submitted to multi-exponential curve fitting using WinNonlin software. The area under the plasma concentration-time curve from 0 to t hours after dosing (AUC0-t, t=time of the last measurable plasma concentration) was calculated using the linear trapezoidal rule. The residual area extrapolated to infinity, determined as the final measured plasma concentration (Ct) divided by the terminal plasma elimination rate constant (β), was added to the AUC0-t to produce the total area under the curve (AUC0-∞). The apparent total plasma clearance (CLp) was calculated by dividing the administered dose by the AUC0-∞. Half-life (t1/2) was determined with the following calculation: t1/2=ln (2)/elimination rate constant. The initial volume of distribution (Vc) was calculated as the dose divided by the extrapolated concentration at time=0 (C0). The volume of distribution at steady state, Vss, was estimated as a product of the total plasma clearance (CLp) and the mean residence time (MRT); the terminal-phase volume of distribution, Vβ, was derived from the total plasma clearance value (CLp) divided by the terminal plasma elimination rate constant (β). Oral bioavailability (F) was calculated as the dose-normalized AUC0-∞ (AUC0-∞/D) from the oral dose divided by the corresponding dose normalized AUC0-∞ from intravenous dosing.

Another series concerns the target Bcl-2 protein (Homo sapiens (Human), UniProt P10415). The series can be described thus: TR-FRET binding assay, Bcl-2 (F-Bak peptide probe). Conditions: Bak BH3 peptide probe, Wang's equation. As to the method:
(§2) Determination of the utility of compounds having Formula (I) or Formula (II) as binders to and inhibitors of anti-apoptotic Bcl-2 proteins was performed using the Time Resolved-Fluorescence Resonance Energy Transfer (TR-FRET) Assay. Tb-anti-GST antibody was purchased from Invitrogen (Catalog No. PV4216).
A Bcl-2 human encoding sequence was cloned into a pET41A vector (Novagen). The protein was expressed with E. coli. BL21(DE3)-T1R strain in OETB autoinduction medium at 30° C. for 25 hours. The cell pellets were resuspended in lysis buffer (50 mM Tris, 140 mM NaCl, 1 mM DTT, 10% Glycerol, 2 mM MgCl2, pH 7.3) and lysed with Microfluidizer. The Bcl-2 protein in clarified cell-lysate was purified with affinity chromatography (GST and Ni-NTA). The eluate was loaded onto a Superdex 75 column and further purified with a Q Sepharose column. The protein was purified on a phenyl hydrophobic interaction column and dialyzed in the storage buffer (50 mM Tris, 50 mM NaCl, 2 mM DTT, pH 7.5) and stored at −80° C.
(§3) […] of a protein (Bcl-2 or Bcl-xL)/probe/antibody mixture pre-equilibrated for one hour in assay buffer was added to each well at final concentrations listed in Table 6 below.
(§4) The samples were then mixed on a shaker for 1 minute and equilibrated for an additional 3 hours at room temperature. For each assay plate, a probe/antibody and protein/antibody/probe mixture were included as a negative and a positive control, respectively. Fluorescence was measured on the Envision (Perkin Elmer) using a 340/35 nm excitation filter and 520/525 (F-Bak) and 495/510 nm (Tb-labeled anti-GST antibody) emission filters. Inhibition constants (Ki) were determined using Wang's equation (Wang FEBS Lett. 1995, 360, 111-114). The TR-FRET assay can be performed in the presence of varying concentrations of human serum (HS) to determine apparent half maximal inhibitory concentration (IC50) after HS protein binding.
(§5) Inhibition constants were determined using Wang's equation (Wang FEBS Lett. 1995, 360:111-4).
Background: Time-resolved FRET reads energy transfer from a long-lived donor to a nearby acceptor.

A further series addresses Bcl-xL protein (Homo sapiens (Human), UniProt Q07817). The series can be described thus: TR-FRET binding assay, Bcl-xL (F-Bak peptide probe). Conditions: Bak BH3 peptide probe, Wang's equation. As to the method:
as §2
A human Bcl-xL encoding sequence was cloned into a pET41A vector. The protein was expressed with E. coli. BL21(DE3)-T1R strain in OETB autoinduction medium at 30° C. for 25 hours. The cell pellets were resuspended in lysis buffer (50 mM Tris, 140 mM NaCl, 1 mM DTT, 10% Glycerol, 0.1% Triton X-100, pH 7.5) and lysed with Microfluidizer. The Bcl-xL protein in clarified cell-lysate was purified with GST affinity chromatography. The eluate was dialyzed in the storage buffer (1×PBS, 10% Glycerol, 2 mM DTT, 1 mM Sodium Azide, pH 7.4) and stored at −80° C.
as §3, §4, §5

Setting [2] is: male, CD-1, mouse, plasma, iv, 1 mg/kg, IV 1 mg/kg, individual animal.
The mark [3] stands for this setting: male, CD-1, mouse, plasma, iv, 1 mg/kg, IV 1 mg/kg, mean.
Setting [4] is: male, CD-1, mouse, plasma, po, 1 mg/kg, PO 1 mg/kg, individual animal.
The mark [5] stands for this setting: male, CD-1, mouse, plasma, po, 1 mg/kg, PO 1 mg/kg, mean.

Chain of Bcl-xL protein (Q07817 other isoform, or with tags, fused parts or gaps): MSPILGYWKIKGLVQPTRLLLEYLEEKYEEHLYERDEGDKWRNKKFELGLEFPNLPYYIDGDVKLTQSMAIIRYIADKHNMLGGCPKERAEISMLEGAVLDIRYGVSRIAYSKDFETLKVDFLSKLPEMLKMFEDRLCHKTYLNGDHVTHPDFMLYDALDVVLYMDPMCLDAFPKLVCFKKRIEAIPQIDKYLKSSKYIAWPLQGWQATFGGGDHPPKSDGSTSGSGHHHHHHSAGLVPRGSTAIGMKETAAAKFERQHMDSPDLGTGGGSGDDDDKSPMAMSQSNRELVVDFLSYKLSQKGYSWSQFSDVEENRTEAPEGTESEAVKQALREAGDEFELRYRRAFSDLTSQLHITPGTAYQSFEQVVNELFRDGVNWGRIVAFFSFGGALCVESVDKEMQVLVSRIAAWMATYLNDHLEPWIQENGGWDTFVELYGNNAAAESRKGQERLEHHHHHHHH
Chain of Bcl-2 protein (P10415 other isoform, or with tags, fused parts or gaps): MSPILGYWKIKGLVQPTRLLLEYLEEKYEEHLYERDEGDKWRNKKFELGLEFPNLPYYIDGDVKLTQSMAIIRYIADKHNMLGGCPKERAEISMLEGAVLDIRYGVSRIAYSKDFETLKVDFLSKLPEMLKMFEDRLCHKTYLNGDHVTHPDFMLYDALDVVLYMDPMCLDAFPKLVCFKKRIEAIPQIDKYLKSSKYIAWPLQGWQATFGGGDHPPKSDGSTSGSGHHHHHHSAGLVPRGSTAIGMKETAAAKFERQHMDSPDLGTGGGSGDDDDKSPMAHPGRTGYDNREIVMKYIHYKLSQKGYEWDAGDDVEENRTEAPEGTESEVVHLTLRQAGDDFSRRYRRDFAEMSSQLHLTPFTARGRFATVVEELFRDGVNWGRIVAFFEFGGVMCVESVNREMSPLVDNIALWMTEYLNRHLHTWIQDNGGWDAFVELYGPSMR

Turning to `CO[C@@H]1CC[C@@H](CNc2ccc(S(=O)(=O)NC(=O)c3ccc(N4CCN5CC6=C(c7ccc(Cl)cc7)CC(C)(C)C[C@H]6OCCCOC[C@@H]5C4)cc3N3CCCOc4nc5[nH]ccc5cc43)cc2[N+](=O)[O-])OC1` [Example 25, 4-((4aS,10aR)-14-(4-chlorophenyl)-12,12-dimethyl-1,2,4a,5,8,9,10a,11,13,15-decahydro-7H,12H-benzo[f]pyrazino[2,1-c][1,8]dioxa[4]azacycloundecin-3(4H)-yl)-2-(3,4-dihydro-2H-pyrrolo[3′,2′:5,6]pyrido[2,3-b][1,4]oxazepin-1(7H)-yl)-N-((4-((((2S,5R)-5-methoxytetrahydro-2H-pyran-2-yl)methyl)amino)-3-nitrophenyl)sulfonyl)benzamide], the figures for the concentration for a half-maximal effect (EC50) in the series on RS4;11 cells and in the series with Molt-4 cells were 1.79 nM and 1280 nM, respectively. In addition, the Vβ in series [1] (IV 1 mg/kg, plasma, individual animal) is 0.95 L/kg and 1.0 L/kg and 0.90 L/kg; in series [1] (IV 1 mg/kg, plasma, mean), 0.96 L/kg. Besides, the time to peak (Tmax) in series [1] (male, CD-1, PO 1 mg/kg, plasma, individual animal) stood at 4 h. Besides, the AUC in series [1] (setting [2]) is 15800 ng·h/mL; in series [1] (setting [3]), 13300 ng·h/mL; in series [1] (setting [4]) it was 3580 ng·h/mL; in series [1] (setting [5]), 4130 ng·h/mL. The figures for the C0 in series [1] (setting [2]) and in series [1] (setting [3]) were 4010 ng/mL and 4160 ng/mL, respectively. In addition, the figures for the MRT in series [1] (setting [2]) and in series [1] (setting [3]) were 12 h and 11 h, respectively. The half-life in series [1] (setting [2]) was 10 h; in series [1] (setting [4]) it was 7.5 h. In addition, the clearance in series [1] (male, CD-1, mouse, plasma, iv, 1 mg/kg, IV 1 mg/kg, plasma, individual animal, read-out: CLP (converted)) was 1.05 mL/min/kg. The Vd in series [1] (male, CD-1, mouse, plasma, iv, 1 mg/kg, IV 1 mg/kg, plasma, individual animal) came out at 0.78 L/kg; in series [1] (male, CD-1, mouse, plasma, iv, 1 mg/kg, IV 1 mg/kg, plasma, mean), 0.82 L/kg. Further, the Cmax is 210 ng/mL in series [1] (setting [4]) and 254 ng/mL in series [1] (setting [5]). The bioavailability in series [1] (male, CD-1, plasma, PO 1 mg/kg vs IV 1 mg/kg, mean, read-out: F (oral bioavailability)) came to 31%.

As to `CC1(C)CC(c2ccc(Cl)cc2)=C2CN3CCN(c4ccc(C(=O)NS(=O)(=O)c5ccc(OC[C@H]6CC[C@H](N7CCOCC7)CC6)c(Cl)c5)c(N5CCCOc6nc7[nH]ccc7cc65)c4)C[C@H]3COCCCO[C@@H]2C1` [Example 38, N-((3-chloro-4-(((1r,4r)-4-morpholinocyclohexyl)methoxy)phenyl)sulfonyl)-4-((4aS,10aR)-14-(4-chlorophenyl)-12,12-dimethyl-1,2,4a,5,8,9,10a,11,13,15-decahydro-7H,12H-benzo[f]pyrazino[2,1-c][1,8]dioxa[4]azacycloundecin-3(4H)-yl)-2-(3,4-dihydro-2H-pyrrolo[3′,2′:5,6]pyrido[2,3-b][1,4]oxazepin-1(7H)-yl)benzamide], the half-maximal effective concentration (EC50) worked out at 26 nM in the series with RS4;11 cells and 2340 nM in the series with Molt-4 cells. The Ki was found to be 0.108 nM at Bcl-2 protein and 5.62 nM at Bcl-xL protein.

On to `CC1(C)CC(c2ccc(Cl)cc2)=C2CN3CCN(c4ccc(C(=O)NS(=O)(=O)c5cnc(OC[C@H]6CC[C@](C)(O)CC6)c(Cl)c5)c(N5CCCOc6nc7[nH]ccc7cc65)c4)C[C@H]3COCCCO[C@@H]2C1` [Example 42, N-((5-chloro-6-(((1r,4r)-4-hydroxy-4-methylcyclohexyl)methoxy)pyridin-3-yl)sulfonyl)-4-((4aS,10aR)-14-(4-chlorophenyl)-12,12-dimethyl-1,2,4a,5,8,9,10a,11,13,15-decahydro-7H,12H-benzo[f]pyrazino[2,1-c][1,8]dioxa[4]azacycloundecin-3(4H)-yl)-2-(3,4-dihydro-2H-pyrrolo[3′,2′:5,6]pyrido[2,3-h][1,4]oxazepin-1(7H)-yl)benzamide], for which the EC50 in the series on RS4;11 cells was 11.3 nM; with Molt-4 cells, greater than 10000 nM. Moreover, the results for the Ki at Bcl-2 protein and at Bcl-xL protein were 0.159 nM and 25.1 nM, respectively.

As to `CC1(C)CC(c2ccc(Cl)cc2)=C2CN3CCN(c4ccc(C(=O)NS(=O)(=O)c5ccc(OC[C@H]6CC[C@](C)(O)CC6)c(Cl)c5)c(N5CCCOc6nc7[nH]ccc7cc65)c4)C[C@H]3COCCCO[C@@H]2C1` [Example 43, N-((3-chloro-4-(((1r,4r)-4-hydroxy-4-methylcyclohexyl)methoxy)phenyl)sulfonyl)-4-((4aS,10aR)-14-(4-chlorophenyl)-12,12-dimethyl-1,2,4a,5,8,9,10a,11,13,15-decahydro-7H,12H-benzo[f]pyrazino[2,1-c][1,8]dioxa[4]azacycloundecin-3(4H)-yl)-2-(3,4-dihydro-2H-pyrrolo[3′,2′:5,6]pyrido[2,3-b][1,4]oxazepin-1(7H)-yl)benzamide], the concentration for a half-maximal effect (EC50) in the series with RS4;11 cells is 17.7 nM; in the series with Molt-4 cells, greater than 10000 nM. The Ki was 0.0853 nM at Bcl-2 protein and 29.7 nM on Bcl-xL protein.

As for `CC1(C)CC(c2ccc(Cl)cc2)=C2CN3CCN(c4ccc(C(=O)NS(=O)(=O)c5ccc(OC[C@H]6CC[C@](C)(O)CC6)c([N+](=O)[O-])c5)c(N5CCCOc6nc7[nH]ccc7cc65)c4)C[C@H]3COCCCO[C@@H]2C1` [Example 44, 4-((4aS,10aR)-14-(4-chlorophenyl)-12,12-dimethyl-1,2,4a,5,8,9,10a,11,13,15-decahydro-7H,12H-benzo[f]pyrazino[2,1-c][1,8]dioxa[4]azacycloundecin-3(4H)-yl)-2-(3,4-dihydro-2H-pyrrolo[3′,2′:5,6]pyrido[2,3-b][1,4]oxazepin-1(7H)-yl)-N-((4-(((1r,4r)-4-hydroxy-4-methylcyclohexyl)methoxy)-3-nitrophenyl)sulfonyl)benzamide], the half-maximal effective concentration (EC50) was 4.39 nM in the series with RS4;11 cells and 2270 nM in the series on Molt-4 cells. Moreover, the Ki is 0.0898 nM at Bcl-2 protein and 7.98 nM on Bcl-xL protein.

These data come from US11964990B2, “1,3,4,7-tetrahydro-2H-pyrrolo[3′,2′:5,6]pyrido[2,3-b][1,4]oxazepine bcl-2 inhibitors” (AbbVie Inc., priority 2022, dated 2024).
